Consider 22 compounds from US8017612B2, “Piperazine compound and use thereof as a HCV polymerase inhibitor” (priority 2006, dated 2011).

As usually defined, the IC50 is the concentration that gives 50% inhibition.

Assay [1] addresses T1, HCV polymerase (NS5B) type 1b (Hepatitis C virus genotype 1b, UniProt P26663).
T1 construct: a region encoding NS5B (J Virol 1991 March, 65(3), 1105-13, 544 amino acids after deletion of 47 amino acids on the C-terminal); 6xHis (C); made in house; host or cells: Escherichia coli
As to the kind of experiment: Assay of enzyme (HCV polymerase) inhibitory activity, type 1b enzyme. Conditions: HCV polymerase inhibitory activity IC50, 1b, type 1b enzyme. The assay is classed as biochemical, HCV BK strain (type 1b). The method in brief:
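Rxn: NS5B 1b (BK, ΔC47, His6) 0.5 μg/ml; substrate RNA 5 μg/ml; ATP/GTP/CTP 50 μM, UTP 2 μM + [5,6-3H]UTP; 20 mM Tris pH 7.5, 5 mM MgCl2, 50 mM NaCl, 1 mM EDTA/DTT. 25 °C, 60 min. Stop with TCA/pyrophosphate, filter, scintillation count; IC50 vs. untreated.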

Assay [2] deals with T2, HCV polymerase (NS5B) type 1a (Hepatitis C virus genotype 1a, UniProt P26664).
T2 construct: made in house; host or cells: Escherichia coli (by the 'similar method' of the 1b enzyme)
As to the kind of experiment: Assay of enzyme (HCV polymerase) inhibitory activity, type 1a enzyme. It is filed as biochemical, HCV type 1a (cloned from the blood of patients). Conditions: HCV polymerase inhibitory activity IC50, 1a, type 1a enzyme. Summed up: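 NS5B Δ47 C-term His6 (type 1a, 1.5 μg/ml); substrate RNA 5 μg/ml; ATP/GTP/CTP 50 μM, UTP 2 μM + [5,6-3H]UTP; Tris pH 7.5, MgCl2 5 mM; 25° C, 60 min. TCA/pyrophosphate stop, GF/B filter, scintillation. IC50 vs no-compound control.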

Regarding `CCC(F)(F)c1ccc(CNC(=O)[C@H]2CN(C(=O)CC(=O)O)CCN2S(=O)(=O)c2ccc(OC(F)(F)F)cc2)cc1` [Example 678, 3-[(R)-3-[4-(1,1-difluoro-propyl)-benzylcarbamoyl]-4-(4-trifluoromethoxy-benzenesulfonyl)-piperazin-1-yl]-3-oxo-propionic acid], the IC50 in assay [1] and in assay [2] was > 1000 nM each time.

With `CCC(F)(F)c1ccc(CNC(=O)[C@H]2CN(C(=O)C(=O)O)CCN2S(=O)(=O)c2ccc(OC(F)(F)F)cc2)cc1` [Example 679, [(R)-3-[4-(1,1-difluoro-propyl)-benzylcarbamoyl]-4-(4-trifluoromethoxy-benzenesulfonyl)-piperazin-1-yl]-oxo-acetic acid], the IC50 in assay [1] and in assay [2] was > 1000 nM each time.

As to `CCCn1ccc(CNC(=O)[C@H]2CN(c3cnc4cncnc4n3)CCN2S(=O)(=O)c2ccc(OC(F)(F)F)cc2)cc1=O` [Example 680, (R)-4-pteridin-7-yl-1-(4-trifluoromethoxy-benzenesulfonyl)-piperazine-2-carboxylic acid (2-oxo-1-propyl-1,2-dihydro-pyridin-4-ylmethyl)-amide], the IC50 in assay [1] was 100 to 1000 nM; in assay [2] it was > 1000 nM.

As for `CCCN1CCC(CNC(=O)[C@H]2CN(C(C)=O)CCN2S(=O)(=O)c2ccc(OC(F)(F)F)cc2)CC1` [Example 681, (R)-4-acetyl-1-(4-trifluoromethoxy-benzenesulfonyl)-piperazine-2-carboxylic acid (1-propyl-piperidin-4-ylmethyl)-amide], the IC50 in assay [1] and in assay [2] was > 1000 nM throughout.

On to `CC(=O)N1CCN(S(=O)(=O)c2ccc(OC(F)(F)F)cc2)[C@@H](C(=O)NCCc2ccccc2O)C1` [Example 682, (R)-4-acetyl-1-(4-trifluoromethoxy-benzenesulfonyl)-piperazine-2-carboxylic acid [2-(2-hydroxy-phenyl)-ethyl]-amide], for which the IC50 in assay [1] and in assay [2] was > 1000 nM throughout.

Take `CCC(F)(F)c1ccc(CNC(=O)[C@H]2CN(c3cnc4cncnc4n3)CCN2S(=O)(=O)c2ccc(Br)cc2)cc1` [Example 683, (R)-1-(4-bromo-benzenesulfonyl)-4-pteridin-7-yl-piperazine-2-carboxylic acid 4-(1,1-difluoro-propyl)-benzylamide]: the IC50 in assay [1] and in assay [2] was < 100 nM throughout.

Consider `CCC(F)(F)c1ccc(CNC(=O)[C@H]2CN(c3cnc4cc(Br)ccc4n3)CCN2S(=O)(=O)c2ccc(OC(F)(F)F)cc2)cc1` [Example 684, (R)-4-(6-bromo-quinoxalin-2-yl)-1-(4-trifluoromethoxy-benzenesulfonyl)-piperazine-2-carboxylic acid 4-(1,1-difluoro-propyl)-benzylamide], for which the IC50 in assay [1] and in assay [2] was 100 to 1000 nM each time.

In the case of `CCC(F)(F)c1ccc(CNC(=O)[C@H]2CN(c3cnc4ccc(Br)cc4n3)CCN2S(=O)(=O)c2ccc(OC(F)(F)F)cc2)cc1` [Example 685, (R)-4-(7-bromo-quinoxalin-2-yl)-1-(4-trifluoromethoxy-benzenesulfonyl)-piperazine-2-carboxylic acid 4-(1,1-difluoro-propyl)-benzylamide], the IC50 in assay [1] and in assay [2] was 100 to 1000 nM in each case.

For the compound `CCC(F)(F)c1ccc(CNC(=O)[C@H]2CN(c3cnc4cncnc4n3)CCN2S(=O)(=O)c2ccc(C(F)(F)F)cc2)cc1` [Example 686, (R)-4-pteridin-7-yl-1-(4-trifluoromethyl-benzenesulfonyl)-piperazine-2-carboxylic acid 4-(1,1-difluoro-propyl)-benzylamide], the IC50 in assay [1] and in assay [2] was < 100 nM each time.

With `CCCc1ccc(CNC(=O)[C@H]2CN(c3cnc(C(=O)O)cn3)CCN2S(=O)(=O)c2ccc(Br)cc2)cc1` [Example 687, (R)-4-(4-bromo-benzenesulfonyl)-3-(4-propyl-benzylcarbamoyl)-3,4,5,6-tetrahydro-2H-[1,2′]bipyrazinyl-5′-carboxylic acid], the IC50 in assay [1] and in assay [2] was < 100 nM throughout.

For `CCC(F)(F)c1ccc(CNC(=O)[C@H]2CN(c3cnc4cc(Cl)ccc4n3)CCN2S(=O)(=O)c2ccc(OC(F)(F)F)cc2)cc1` [Example 688, (R)-4-(6-chloro-quinoxalin-2-yl)-1-(4-trifluoromethoxy-benzenesulfonyl)-piperazine-2-carboxylic acid 4-(1,1-difluoro-propyl)-benzylamide], the IC50 in assay [1] and in assay [2] was 100 to 1000 nM in each case.

For `CC(C)(C)c1ccc(CNC(=O)[C@H]2CN(c3cnc4cnccc4n3)CCN2S(=O)(=O)c2ccc(OC(F)(F)F)cc2)cc1` [Example 689, (R)-4-pyrido[3,4-b]pyrazin-2-yl-1-(4-trifluoromethoxy-benzenesulfonyl)-piperazine-2-carboxylic acid 4-tert-butyl-benzylamide], the IC50 in assay [1] and in assay [2] was < 100 nM in each case.

Consider `CCC(F)(F)c1ccc(CNC(=O)[C@H]2CN(c3cnc4nsnc4n3)CCN2S(=O)(=O)c2ccc(OC(F)(F)F)cc2)cc1` [Example 691, (R)-4-[1,2,5]thiadiazolo[3,4-b]pyrazin-5-yl-1-(4-trifluoromethoxy-benzenesulfonyl)-piperazine-2-carboxylic acid 4-(1,1-difluoro-propyl)-benzylamide], for which the IC50 in assay [1] and in assay [2] was < 100 nM in each case.

`CCC(F)(F)c1ccc(CNC(=O)[C@H]2CN(c3cnc4cnc(C)nc4n3)CCN2S(=O)(=O)c2ccc(OC(F)(F)F)cc2)cc1` [Example 692, (R)-4-(2-methyl-pteridin-7-yl)-1-(4-trifluoromethoxy-benzenesulfonyl)-piperazine-2-carboxylic acid 4-(1,1-difluoro-propyl)-benzylamide]: the IC50 in assay [1] and in assay [2] was < 100 nM each time.

Consider `CCOC(=O)c1ccc2nc(N3CCN(S(=O)(=O)c4ccc(OC(F)(F)F)cc4)[C@@H](C(=O)NCc4ccc(C(F)(F)CC)cc4)C3)cnc2c1` [Example 693, 2-[(R)-3-[4-(1,1-difluoro-propyl)-benzylcarbamoyl]-4-(4-trifluoromethoxy-benzenesulfonyl)-piperazin-1-yl]-quinoxaline-6-carboxylic acid ethyl ester], for which the IC50 in assay [1] was 100 to 1000 nM; in assay [2], > 1000 nM.

`CCC(F)(F)c1ccc(CNC(=O)[C@H]2CN(c3nc4cnncc4s3)CCN2S(=O)(=O)c2ccc(OC(F)(F)F)cc2)cc1` [Example 694, (R)-4-thiazolo[4,5-d]pyridazin-2-yl-1-(4-trifluoromethoxy-benzenesulfonyl)-piperazine-2-carboxylic acid 4-(1,1-difluoro-propyl)-benzylamide]: the IC50 in assay [1] and in assay [2] was < 100 nM in each case.

For `CCC(F)(F)c1ccc(CNC(=O)[C@H]2CN(c3cnc4cncnc4n3)CCN2S(=O)(=O)c2ccc(C(C)(C)C)cc2)cc1` [Example 695, (R)-1-(4-tert-butyl-benzenesulfonyl)-4-pteridin-7-yl-piperazine-2-carboxylic acid 4-(1,1-difluoro-propyl)-benzylamide], the concentration for half-maximal inhibition (IC50) in assay [1] and in assay [2] was < 100 nM throughout.

As for `CCC(F)(F)c1ccc(CNC(=O)[C@H]2CN(c3cnc4cncnc4n3)CCN2S(=O)(=O)c2ccc(-c3ccccc3)cc2)cc1` [Example 696, (R)-1-(biphenyl-4-sulfonyl)-4-pteridin-7-yl-piperazine-2-carboxylic acid 4-(1,1-difluoro-propyl)-benzylamide], the IC50 in assay [1] and in assay [2] was < 100 nM each time.

Consider `CCC(F)(F)c1ccc(CNC(=O)[C@H]2CN(c3cnc4cncnc4n3)CCN2S(=O)(=O)c2ccc(Cl)cc2)cc1` [Example 697, (R)-1-(4-chloro-benzenesulfonyl)-4-pteridin-7-yl-piperazine-2-carboxylic acid 4-(1,1-difluoro-propyl)-benzylamide], for which the concentration for half-maximal inhibition (IC50) in assay [1] and in assay [2] was < 100 nM in each case.

On to `CCC(F)(F)c1ccc(CNC(=O)[C@H]2CN(c3cnc4cncnc4n3)CCN2S(=O)(=O)c2ccc([N+](=O)[O-])cc2)cc1` [Example 698, (R)-1-(4-nitro-benzenesulfonyl)-4-pteridin-7-yl-piperazine-2-carboxylic acid 4-(1,1-difluoro-propyl)-benzylamide], for which the IC50 in assay [1] and in assay [2] was < 100 nM in each case.

`CCCc1ccc(CNC(=O)[C@H]2CN(c3cnc(C(=O)O)cn3)CCN2S(=O)(=O)c2ccc(Br)s2)cc1` [Example 699, (R)-4-(5-bromo-thiophene-2-sulfonyl)-3-(4-propyl-benzylcarbamoyl)-3,4,5,6-tetrahydro-2H-[1,2′]bipyrazinyl-5′-carboxylic acid]: the concentration for half-maximal inhibition (IC50) in assay [1] and in assay [2] was < 100 nM throughout.

Consider `CCCc1ccc(CNC(=O)[C@H]2CN(c3cnc(C(=O)O)cn3)CCN2S(=O)(=O)c2ccc(C(C)(C)C)cc2)cc1` [Example 700, (R)-4-(4-tert-butyl-benzenesulfonyl)-3-(4-propyl-benzylcarbamoyl)-3,4,5,6-tetrahydro-2H-[1,2′]bipyrazinyl-5′-carboxylic acid], for which the IC50 in assay [1] and in assay [2] was < 100 nM throughout.
